Data from patent US8415272B2, “Quinoline derivatives and their use as fungicides” (Syngenta Crop Protection LLC, priority 2008, dated 2013).

Columns and labels:
Pythium ultimum = assay: Growth inhibition in potato dextrose broth, Pythium ultimum (damping off), photometric; assay type: cell-based; details: Globisporangium ultimum, 24° C., 48 hours, read-out: control of fungal infection, Pythium ultimum
In short: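 Growth inhibition was read photometrically at 48 hours after incubation at 24° C. Test compound was diluted from DMSO to 20 ppm in water and combined with potato dextrose broth seeded with Pythium ultimum mycelial fragments.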

[1] = tested on: Puccinia recondita f.sp. tritici; assay: Leaf disk assay, Puccinia recondita f.sp. tritici (wheat brown rust), preventive; assay type: in vivo; details: foliar, 216 h, wheat leaf segments, assessed nine days after inoculation, read-out: control of fungal infection, Puccinia recondita f.sp. tritici
Plasmopara viticola = assay: Leaf disk assay, Plasmopara viticola (downy mildew of grapevine), preventive; assay type: in vivo; details: foliar, 168 h, grapevine leaf disks, assessed seven days after inoculation, read-out: control of fungal infection, Plasmopara viticola
Phytophthora infestans = assay: whole plant or invertebrate; assay type: in vivo; details: in Solanum lycopersicum, foliar, 96 h, read-out: control of fungal infection, Phytophthora infestans
[2] = tested on: Erysiphe graminis f.sp. tritici; assay: Leaf disk assay, Erysiphe graminis f.sp. tritici (wheat powdery mildew), preventive; assay type: in vivo; details: Blumeria graminis, foliar, 96 h, wheat leaf segments, assessed four days after inoculation, read-out: control of fungal infection, Erysiphe graminis f.sp. tritici
In short: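 Preventive protocol: compound at 200 ppm in water (from DMSO) sprayed onto wheat leaf segments on agar, dried 12–24 h, then spore-inoculated. Fungicidal activity was assessed four days post-inoculation.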

Septoria nodorum = assay: Leaf disk assay, Septoria nodorum (wheat glume blotch), preventive; assay type: in vivo; details: Parastagonospora nodorum, foliar, 96 h, wheat leaf segments, assessed four days after inoculation, read-out: control of fungal infection, Septoria nodorum
Pyrenophora teres = assay: Leaf disk assay, Pyrenophora teres (barley net blotch), preventive; assay type: in vivo; details: foliar, 96 h, barley leaf segments, assessed four days after inoculation, read-out: control of fungal infection, Pyrenophora teres
Procedure: The compounds were tested in a leaf disk assay, with methods described below. The test compounds were dissolved in DMSO and diluted into water to 200 ppm. In the case of the test on Pythium ultimum, they were dissolved in DMSO and diluted into water to 20 ppm. Pyrenophora teres (barley net blotch): Barley leaf segments were placed on agar in a 24-well plate and sprayed with a solution of the test compound. After allowing to dry completely, for between 12 and 24 hours, the leaf disks were inoculated with a spore suspension of the fungus. After appropriate incubation the activity of a compound was assessed four days after inoculation as preventive fungicidal activity.

Septoria tritici = assay: Growth inhibition in nutrient broth, Septoria tritici (leaf blotch), photometric; assay type: cell-based; details: Zymoseptoria tritici, PDB broth, 24 C, 72 hrs, read-out: control of fungal infection, Septoria tritici
Fusarium culmorum = assay: Growth inhibition in nutrient broth, Fusarium culmorum (root rot), photometric; assay type: cell-based; details: 48 h, read-out: control of fungal infection, Fusarium culmorum
Procedure: The compounds were tested in a leaf disk assay, with methods described below. The test compounds were dissolved in DMSO and diluted into water to 200 ppm. In the case of the test on Pythium ultimum, they were dissolved in DMSO and diluted into water to 20 ppm.
Fusarium culmorum (root rot): Conidia of the fungus from cryogenic storage were directly mixed into nutrient broth (PDB potato dextrose broth). After placing a (DMSO) solution of the test compounds into a microtiter plate (96-well format) the nutrient broth containing the fungal spores was added. The test plates were incubated at 24 C and the inhibition of growth was determined photometrically after 48 hrs.

C#CCOCC(C)(C)NC(=O)C(Oc1cc(Cl)c2ncc(C#C)cc2c1)SC (stereo not drawn) [Example 76]
≥ 60%: inhibition of growth at 20 ppm (Pythium ultimum) | pest or weed control at 200 ppm [1] | pest or weed control at 200 ppm (Plasmopara viticola) | pest or weed control at 200 ppm (Phytophthora infestans) | pest or weed control at 200 ppm [2] | pest or weed control at 200 ppm (Septoria nodorum) | pest or weed control at 200 ppm (Pyrenophora teres) | inhibition of growth at 60 ppm (Septoria tritici)

C#Cc1cnc2c(C)cc(OC(SC)C(=O)NC(C)(C)COCC)cc2c1 (stereo not drawn) [Example 95]
≥ 60%: inhibition of growth at 20 ppm (Pythium ultimum) | pest or weed control at 200 ppm [1] | pest or weed control at 200 ppm (Plasmopara viticola) | pest or weed control at 200 ppm (Phytophthora infestans) | pest or weed control at 200 ppm [2] | pest or weed control at 200 ppm (Septoria nodorum) | pest or weed control at 200 ppm (Pyrenophora teres) | inhibition of growth at 60 ppm (Septoria tritici)

C#Cc1cnc2c(C)cc(OC(SC)C(=O)NC(C)(C)COCOC)cc2c1 (stereo not drawn) [Example 68]
≥ 60%: pest or weed control at 200 ppm [1] | pest or weed control at 200 ppm (Plasmopara viticola) | pest or weed control at 200 ppm (Phytophthora infestans) | pest or weed control at 200 ppm [2] | pest or weed control at 200 ppm (Septoria nodorum) | pest or weed control at 200 ppm (Pyrenophora teres) | inhibition of growth at 60 ppm (Septoria tritici)

C#Cc1cnc2c(C)cc(OC(SC)C(=O)NC(C)(COC)COC)cc2c1 (stereo not drawn) [Example 133]
≥ 60%: pest or weed control at 200 ppm [1] | pest or weed control at 200 ppm (Plasmopara viticola) | pest or weed control at 200 ppm (Phytophthora infestans) | pest or weed control at 200 ppm [2] | pest or weed control at 200 ppm (Septoria nodorum) | pest or weed control at 200 ppm (Pyrenophora teres) | inhibition of growth at 60 ppm (Septoria tritici)

C#Cc1cnc2c(C)cc(OC(SC)C(=O)NC(C)(C#C)COC)cc2c1 (stereo not drawn) [Example 135]
≥ 60%: inhibition of growth at 20 ppm (Pythium ultimum) | pest or weed control at 200 ppm [1] | pest or weed control at 200 ppm (Plasmopara viticola) | pest or weed control at 200 ppm (Phytophthora infestans) | pest or weed control at 200 ppm [2] | pest or weed control at 200 ppm (Septoria nodorum) | pest or weed control at 200 ppm (Pyrenophora teres) | inhibition of growth at 60 ppm (Septoria tritici)

C#Cc1cnc2c(Cl)cc(OC(SC)C(=O)NC(C)(C)C#CCOC)cc2c1 (stereo not drawn) [Example 62]
≥ 60%: pest or weed control at 200 ppm [1] | pest or weed control at 200 ppm (Plasmopara viticola) | pest or weed control at 200 ppm (Phytophthora infestans) | pest or weed control at 200 ppm [2] | pest or weed control at 200 ppm (Septoria nodorum) | pest or weed control at 200 ppm (Pyrenophora teres) | inhibition of growth at 60 ppm (Septoria tritici)

C#Cc1cnc2c(C)cc(OC(SC)C(=O)NC(C)(C#N)CF)cc2c1 (stereo not drawn) [Example 102]
≥ 60%: pest or weed control at 200 ppm [1] | pest or weed control at 200 ppm (Pyrenophora teres)

C#Cc1cnc2c(Cl)cc(OC(SC)C(=O)NC(C)(C)C#CCC)cc2c1 (stereo not drawn) [Example 122]
≥ 60%: inhibition of growth at 20 ppm (Pythium ultimum) | pest or weed control at 200 ppm [1] | pest or weed control at 200 ppm (Plasmopara viticola) | pest or weed control at 200 ppm (Phytophthora infestans) | pest or weed control at 200 ppm [2] | pest or weed control at 200 ppm (Septoria nodorum) | pest or weed control at 200 ppm (Pyrenophora teres) | inhibition of growth at 60 ppm (Septoria tritici)

C#Cc1cnc2c(C)cc(OC(CC)C(=O)NC(C)(C)C#CC)cc2c1 (stereo not drawn) [Example 113]
≥ 60%: pest or weed control at 200 ppm [1] | pest or weed control at 200 ppm (Plasmopara viticola) | pest or weed control at 200 ppm (Phytophthora infestans) | pest or weed control at 200 ppm [2] | pest or weed control at 200 ppm (Septoria nodorum) | pest or weed control at 200 ppm (Pyrenophora teres) | inhibition of growth at 60 ppm (Septoria tritici)

C#Cc1cnc2c(Cl)cc(OC(SC)C(=O)NC(C)(C)C#C)cc2c1 (stereo not drawn) [Example 19]
≥ 60%: pest or weed control at 200 ppm [1] | pest or weed control at 200 ppm (Plasmopara viticola) | pest or weed control at 200 ppm (Phytophthora infestans) | pest or weed control at 200 ppm [2] | pest or weed control at 200 ppm (Septoria nodorum) | pest or weed control at 200 ppm (Pyrenophora teres)

C#Cc1cnc2c(Cl)cc(OC(SC)C(=O)NC3(C)CCC3)cc2c1 (stereo not drawn) [Example 203]
≥ 60%: inhibition of growth at 20 ppm (Pythium ultimum) | pest or weed control at 200 ppm [1] | pest or weed control at 200 ppm (Plasmopara viticola) | pest or weed control at 200 ppm (Phytophthora infestans) | pest or weed control at 200 ppm [2] | pest or weed control at 200 ppm (Septoria nodorum) | pest or weed control at 200 ppm (Pyrenophora teres) | inhibition of growth at 60 ppm (Septoria tritici)

C#Cc1cnc2ccc(OC(SC)C(=O)NC(C)(C)C#N)cc2c1 (stereo not drawn) [Example 82]
≥ 60%: inhibition of growth at 20 ppm (Pythium ultimum) | pest or weed control at 200 ppm [1] | pest or weed control at 200 ppm (Plasmopara viticola) | pest or weed control at 200 ppm (Phytophthora infestans) | pest or weed control at 200 ppm [2] | pest or weed control at 200 ppm (Septoria nodorum) | pest or weed control at 200 ppm (Pyrenophora teres) | inhibition of growth at 60 ppm (Septoria tritici)

C#Cc1cnc2ccc(OC(SC)C(=O)NC3(C)CCC3)cc2c1 (stereo not drawn) [Example 202]
≥ 60%: inhibition of growth at 20 ppm (Pythium ultimum) | pest or weed control at 200 ppm [1] | pest or weed control at 200 ppm (Plasmopara viticola) | pest or weed control at 200 ppm (Phytophthora infestans) | pest or weed control at 200 ppm [2] | pest or weed control at 200 ppm (Septoria nodorum) | pest or weed control at 200 ppm (Pyrenophora teres) | inhibition of growth at 60 ppm (Septoria tritici)

C#Cc1cnc2cc(F)c(OC(SC)C(=O)NC(C)(C)COCC)cc2c1 (stereo not drawn) [Example 200]
≥ 60%: inhibition of growth at 20 ppm (Pythium ultimum) | pest or weed control at 200 ppm [1] | pest or weed control at 200 ppm (Plasmopara viticola) | inhibition of growth at 60 ppm (Fusarium culmorum) | pest or weed control at 200 ppm (Phytophthora infestans) | pest or weed control at 200 ppm [2] | pest or weed control at 200 ppm (Septoria nodorum) | inhibition of growth at 60 ppm (Septoria tritici)

C#Cc1cnc2cc(F)c(OC(SC)C(=O)NC(C)(C)C#CCOCC=C)cc2c1 (stereo not drawn) [Example 199]
≥ 60%: inhibition of growth at 20 ppm (Pythium ultimum) | pest or weed control at 200 ppm [1] | pest or weed control at 200 ppm (Plasmopara viticola) | inhibition of growth at 60 ppm (Fusarium culmorum) | pest or weed control at 200 ppm (Phytophthora infestans) | pest or weed control at 200 ppm [2] | pest or weed control at 200 ppm (Septoria nodorum) | inhibition of growth at 60 ppm (Septoria tritici)

C#Cc1cnc2cc(F)c(OC(SC)C(=O)NC(C)(C)C#CCCOC)cc2c1 (stereo not drawn) [Example 189]
≥ 60%: inhibition of growth at 20 ppm (Pythium ultimum) | pest or weed control at 200 ppm [1] | pest or weed control at 200 ppm (Plasmopara viticola) | inhibition of growth at 60 ppm (Fusarium culmorum) | pest or weed control at 200 ppm (Phytophthora infestans) | pest or weed control at 200 ppm [2] | pest or weed control at 200 ppm (Septoria nodorum) | inhibition of growth at 60 ppm (Septoria tritici)

C#Cc1cnc2c(Cl)cc(OC(SC)C(=O)NC(C)(C)COC)cc2c1 (stereo not drawn) [Example 74]
≥ 60%: inhibition of growth at 20 ppm (Pythium ultimum) | pest or weed control at 200 ppm [1] | pest or weed control at 200 ppm (Plasmopara viticola) | pest or weed control at 200 ppm (Phytophthora infestans) | pest or weed control at 200 ppm [2] | pest or weed control at 200 ppm (Septoria nodorum) | pest or weed control at 200 ppm (Pyrenophora teres) | inhibition of growth at 60 ppm (Septoria tritici)

C#Cc1cnc2cc(F)c(OC(SC)C(=O)NC(C)(C#C)CC)cc2c1 (stereo not drawn) [Example 188]
≥ 60%: inhibition of growth at 20 ppm (Pythium ultimum) | pest or weed control at 200 ppm [1] | pest or weed control at 200 ppm (Plasmopara viticola) | inhibition of growth at 60 ppm (Fusarium culmorum) | pest or weed control at 200 ppm (Phytophthora infestans) | pest or weed control at 200 ppm [2] | pest or weed control at 200 ppm (Septoria nodorum) | inhibition of growth at 60 ppm (Septoria tritici)
